Experimental data reported in patent EP1036075B1, “SUBSTITUTED THIAZOLIDINEDIONE AND OXAZOLIDINEDIONE HAVING ANTIDIABETIC, HYPOLIPIDEMIA AND ANTIHYPERTENSIVE PROPERTIES” (Dr. Reddy's Laboratories Ltd., priority 1997, dated 1998).

Test system: C57BL/KsJ-db/db mice
Assay: Blood sugar and triglycerides lowering activity in db/db mice, oral gavage daily for 6 days
Type: in vivo
Conditions: male db/db mice; for Maximum reduction in blood glucose level (%) / Triglyceride lowering (%): oral gavage daily for 6 days
From the text: Mutation in colonies of laboratory animals and different sensitivities to dietary regimens have made the development of animal models with non-insulin dependent diabetes associated with obesity and insulin resistance possible. Genetic models such as db/db and ob/ob (See Diabetes, (1982) 31(1) : 1- 6) in mice and fa/fa and zucker rats have been developed by the various laboratories for understanding the pathophysiology of disease and testing the efficacy of new antidiabetic compounds (Diabetes, (1983) 32: 830-838; Annu. Rep. Sankyo Res. Lab. (1994) 46 : 1-57). The homozygous animals, C57 BL/KsJ-db/db mice developed by Jackson Laboratory, US, are obese. hyperglycemic, hyperinsulinemic and insulin resistant (J. Clin. Invest., (1990) 85 : 962-967), whereas heterozygous are lean and normoglycemic. In db/db model, mouse progressively develops insulinopenia with age, a feature commonly observed in late stages of human type II diabetes when blood sugar levels are insufficiently controlled. The state of pancreas and its course vary according to the models. Since this model resembles that of type II diabetes mellitus, the compounds of the present invention were tested for blood sugar and triglycerides lowering activities.
Male C57BL/KsJ-db/db mice of 8 to 14 weeks age, having body weight range of 35 to 60 grams, procured from the Jackson Laboraotory, USA, were used in the experiment. The mice were provided with standard feed (National Institute of Nutrition, Hyderabad, India) and acidified water, ad libitum. The animals having more than 300 mg / dl blood sugar were used for testing. The number of animals in each group was 4.
The random blood sugar and triglyceride levels were measured by collecting blood (100 µl) through orbital sinus, using heparinised capillary in tubes containing EDTA which was centrifuged to obtain plasma. The plasma glucose and triglycerides levels were measured spectrometrically, by glucose oxidase and glycerol-3-PO4 oxidase/peroxidase enzyme (Dr. Reddy's Lab. Diagnostic Division Kits, Hyderabad, India) methods respectively. On 6th day the blood samples were collected one hour after administration of test compounds / vehicle for assessing the biological activity.
Test compounds were suspended on 0.25 % carboxymethyl cellulose and administered to test group at a dose of 1 mg to 100 mg / kg through oral gavage daily for 6 days. The control group received vehicle (dose 10 ml / kg).

Question: How did the “Maximum reduction in blood glucose level (%)” value (dose 3 mg/kg/day) turn out when `CN1C(=O)c2ccccc2NC1COc1ccc(CC2SC(=O)NC2=O)cc1` (stereo not drawn) [Example 12, 5-[4-[[3-Methyl-4-oxo-1,2,3,4-tetrahydro-2-quinazolinyl]methoxy]phenylmethyl] thiazolidin-2,4-dione] was run?
Answer: The value was 55%.

Question: What about the “Triglyceride lowering (%)” value (dose 3 mg/kg/day) of the same compound?
Answer: The value was 35%.

Question: With `Cc1c(C)c2c(c(C)c1O)CCC(C)(COc1ccc(CC3SC(=O)NC3=O)cc1)O2` (stereo not drawn) [Troglitazone, reference compound] as the compound, how does the “reduction in random blood sugar level” value (100 mg / kg, daily dose, on 6th day) read?
Answer: Its value is 28%.

Question: With `O=C1NC(=O)C(Cc2ccc(OCC3NC(=O)c4ccccc4O3)cc2)S1` (stereo not drawn) [Example 3, 5-[4-1[[4-Oxo-3,4-dihydro-(2H)-1,3-benzoxazine-2-yl]methoxy]phenylmethyl]thiazotidin-2,4-dione] as the compound, how does the “Maximum reduction in blood glucose level (%)” value (dose 10 mg/kg/day) read?
Answer: Its value is 41%.

Question: What about the “Triglyceride lowering (%)” value (dose 10 mg/kg/day) of the same compound?
Answer: The value was 48%.

Question: What does the source list for `CN1C(=O)c2ccccc2N(C)C1COc1ccc(CC2SC(=O)NC2=O)cc1` (stereo not drawn) [Example 11, 5-[4-[[1,3-Dimethyl-4-oxo-1,2,3,4-tetrahydro-2-quinazolinyl]methoxy]phenylmethyl) thiazolidin-2,4-dione]?
Answer: Maximum reduction in blood glucose level (%) (dose 1 mg/kg/day): 34%; Triglyceride lowering (%) (dose 1 mg/kg/day): 28%

Question: Which results are given for `CN1C(=O)c2ccccc2OC1COc1ccc(CC2SC(=O)NC2=O)cc1` (stereo not drawn) [Example 4, 5-[4-[[3-Methyl-4-oxo-3,4-dihydro-(2H)-1,3-benzoxazine-2-yl]methoxy]phenylmethyl] thiazolidin-2,4-dione]?
Answer: Maximum reduction in blood glucose level (%) (dose 10 mg/kg/day): 48%; Triglyceride lowering (%) (dose 10 mg/kg/day): 42%
